US20250332139A1, “PS[…] AND THEIR USE FOR TREATING […] AND NE[…] DISORDERS” (Transcend Therapeutics, Inc., priority 2021, published 2025)

Legend:
[1] = system: rats; assay: Open field test (OFT); assay type: in vivo, rat; settings: for time spent in the center of the open field: methylone single dose IP 30 min before test (5 or 15 mg/kg in b361; 5-30 mg/kg in b50)
Method: This behavioral assay, also widely used as an anxiety paradigm, capitalizes on a rodent's innate fear of brightly lit open spaces, which are assumed to induce fear or anxiety. Rodents spend more time hugging the walls of the open field during the test, and these effects correlate to underlying brain regions and mechanisms.
Method: Consecutive beam breaks and/or video-tracking of time spent in the center versus periphery of the open field are measured. Also measured are parameters such as distance traveled and ambulatory activity (horizontal and vertical) for the duration of the test session.
The open field test (OFT) capitalizes on a rodent's innate fear of open spaces to assess anxiety-like behavior. More time spent in the center of an open field reflects an anxiolytic (anti-anxiety) effect.
To investigate whether MBDB has an anti-anxiety (anxiolytic) effect, rats were dosed with MBDB (0.5-30 mg/kg, IP) or vehicle (saline) and 30-minutes later were tested in the open field for 30 minutes. This anxiety test capitalizes on a rodents' innate fear of wide-open spaces and propensity to hug the walls when placed into the open field. Therefore, a drug that increases the time spent in the center of the open field has anxiolytic activity and predicts utility for treating anxiety in humans.

[2] = target: 168 GPCRs (Homo sapiens, UniProt P21462); assay: β-arrestin GPCR screen (PathHunter/GPCRmax), antagonist mode; settings: FPR1; Antagonist; 1 uM
[3] = target: 168 GPCRs (Homo sapiens, UniProt P21918); assay: as above; settings: DRD5; Antagonist; 1 uM
[4] = target: 168 GPCRs (Homo sapiens, UniProt P25090); assay: as above; settings: GPCR FPRL1; Antagonist mode; 10 uM
[5] = target: 168 GPCRs (Homo sapiens, UniProt P30988); assay: as above; settings: CALCR-RAMP3, Antagonist
[6] = target: 168 GPCRs (Homo sapiens, UniProt P32249); assay: as above; settings: GPCR EBI2; Antagonist mode; 10 uM
[7] = target: 168 GPCRs (Homo sapiens, UniProt P35367); assay: as above; settings: GPCR HRH1; Antagonist mode; 10 uM
[8] = target: 168 GPCRs (Homo sapiens, UniProt P41231); assay: as above; settings: GPCR P2RY2; Antagonist mode; 10 uM
[9] = target: 168 GPCRs (Homo sapiens, UniProt P41586); assay: as above; settings: ADCYAP1R1; Antagonist; 1 uM
[10] = target: 168 GPCRs (Homo sapiens, UniProt P41968); assay: as above; settings: GPCR MC3R; Antagonist mode; 10 uM
[11] = target: 168 GPCRs (Homo sapiens, UniProt P43115); assay: as above
[12] = target: 168 GPCRs (Homo sapiens, UniProt P47872); assay: as above; settings: SCTR; Antagonist; 1 uM
[13] = target: 168 GPCRs (Homo sapiens, UniProt P50391); assay: as above; settings: PPYR1; Antagonist; 1 uM
[14] = target: 168 GPCRs (Homo sapiens, UniProt P55085); assay: as above; settings: GPCR F2RL1; Antagonist mode; 10 uM
[15] = target: 168 GPCRs (Homo sapiens, UniProt Q8TCW9); assay: as above; settings: PROKR1; Antagonist; 1 uM
[16] = target: 168 GPCRs (Homo sapiens, UniProt Q8TDS5); assay: as above; settings: GPCR OXER1; Antagonist mode; 10 uM
[17] = target: 168 GPCRs (Homo sapiens, UniProt Q969F8); assay: as above; settings: KISS1R; Antagonist; 1 uM
[18] = target: 168 GPCRs (Homo sapiens, UniProt Q96RI0); assay: as above; settings: F2RL3; Antagonist; 1 uM
[19] = target: 168 GPCRs (Homo sapiens, UniProt Q99500); assay: as above; settings: GPCR EDG3; Antagonist mode; 10 uM
[20] = target: 168 GPCRs (Homo sapiens, UniProt Q99705); assay: as above; settings: GPCR MCHR1; Antagonist mode; 10 uM
[21] = target: 168 GPCRs (Homo sapiens, UniProt Q9NSD7); assay: as above; settings: GPCR RXFP3; Antagonist mode; 10 uM
[22] = target: 168 GPCRs (Homo sapiens, UniProt Q9UBY5); assay: as above; settings: EDG7; Antagonist; 1 uM

Sequence of 168 GPCRs (Homo sapiens, UniProt P43115) (P43115 whole entry): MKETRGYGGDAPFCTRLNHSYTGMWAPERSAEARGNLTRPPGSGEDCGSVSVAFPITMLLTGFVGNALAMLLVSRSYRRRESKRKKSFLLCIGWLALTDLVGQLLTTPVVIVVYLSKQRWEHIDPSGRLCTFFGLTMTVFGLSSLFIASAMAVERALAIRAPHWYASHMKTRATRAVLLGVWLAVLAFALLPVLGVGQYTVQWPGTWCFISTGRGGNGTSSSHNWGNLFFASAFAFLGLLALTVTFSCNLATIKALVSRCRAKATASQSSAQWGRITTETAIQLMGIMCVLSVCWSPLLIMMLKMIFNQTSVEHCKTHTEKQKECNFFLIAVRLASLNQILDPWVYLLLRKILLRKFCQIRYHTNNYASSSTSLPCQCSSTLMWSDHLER
Sequence of 168 GPCRs (Homo sapiens, UniProt P30988) (P30988 25-474): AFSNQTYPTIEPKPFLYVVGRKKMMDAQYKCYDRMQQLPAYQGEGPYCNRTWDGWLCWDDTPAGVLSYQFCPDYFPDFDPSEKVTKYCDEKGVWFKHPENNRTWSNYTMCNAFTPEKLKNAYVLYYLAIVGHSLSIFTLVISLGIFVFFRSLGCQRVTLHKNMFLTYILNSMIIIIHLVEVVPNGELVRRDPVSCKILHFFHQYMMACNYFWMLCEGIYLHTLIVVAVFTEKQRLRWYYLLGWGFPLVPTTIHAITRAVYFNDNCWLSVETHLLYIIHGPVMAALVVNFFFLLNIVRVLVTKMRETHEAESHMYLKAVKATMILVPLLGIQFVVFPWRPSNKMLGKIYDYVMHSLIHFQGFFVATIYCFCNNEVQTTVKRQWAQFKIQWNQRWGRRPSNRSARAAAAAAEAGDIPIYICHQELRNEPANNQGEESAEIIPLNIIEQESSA
Sequence of 168 GPCRs (Homo sapiens, UniProt Q9NSD7) (Q9NSD7 whole entry): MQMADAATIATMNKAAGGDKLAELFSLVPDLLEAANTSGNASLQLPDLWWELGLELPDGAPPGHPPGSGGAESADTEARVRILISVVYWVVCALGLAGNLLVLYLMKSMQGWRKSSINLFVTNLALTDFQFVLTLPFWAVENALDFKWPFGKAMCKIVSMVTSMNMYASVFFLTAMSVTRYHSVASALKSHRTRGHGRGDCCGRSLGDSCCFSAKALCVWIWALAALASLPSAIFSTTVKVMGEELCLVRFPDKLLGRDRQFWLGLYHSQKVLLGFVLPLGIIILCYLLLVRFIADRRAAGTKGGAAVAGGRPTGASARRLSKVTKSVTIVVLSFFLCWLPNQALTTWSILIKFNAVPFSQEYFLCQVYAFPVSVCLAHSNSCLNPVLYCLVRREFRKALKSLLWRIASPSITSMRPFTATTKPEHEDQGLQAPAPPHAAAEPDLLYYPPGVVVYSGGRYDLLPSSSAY
Sequence of 168 GPCRs (Homo sapiens, UniProt P47872) (P47872 23-440): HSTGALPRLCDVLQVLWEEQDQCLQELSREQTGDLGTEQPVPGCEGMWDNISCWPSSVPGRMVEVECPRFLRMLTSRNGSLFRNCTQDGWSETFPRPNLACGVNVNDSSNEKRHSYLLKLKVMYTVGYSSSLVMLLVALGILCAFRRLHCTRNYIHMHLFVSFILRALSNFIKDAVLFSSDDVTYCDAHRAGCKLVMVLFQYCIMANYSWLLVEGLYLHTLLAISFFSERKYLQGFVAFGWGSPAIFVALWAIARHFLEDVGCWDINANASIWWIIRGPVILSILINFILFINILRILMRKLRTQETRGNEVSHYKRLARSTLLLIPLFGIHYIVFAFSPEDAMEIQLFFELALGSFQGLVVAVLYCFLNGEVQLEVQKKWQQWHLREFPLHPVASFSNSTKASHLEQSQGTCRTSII
Sequence of 168 GPCRs (Homo sapiens, UniProt P35367) (P35367 whole entry): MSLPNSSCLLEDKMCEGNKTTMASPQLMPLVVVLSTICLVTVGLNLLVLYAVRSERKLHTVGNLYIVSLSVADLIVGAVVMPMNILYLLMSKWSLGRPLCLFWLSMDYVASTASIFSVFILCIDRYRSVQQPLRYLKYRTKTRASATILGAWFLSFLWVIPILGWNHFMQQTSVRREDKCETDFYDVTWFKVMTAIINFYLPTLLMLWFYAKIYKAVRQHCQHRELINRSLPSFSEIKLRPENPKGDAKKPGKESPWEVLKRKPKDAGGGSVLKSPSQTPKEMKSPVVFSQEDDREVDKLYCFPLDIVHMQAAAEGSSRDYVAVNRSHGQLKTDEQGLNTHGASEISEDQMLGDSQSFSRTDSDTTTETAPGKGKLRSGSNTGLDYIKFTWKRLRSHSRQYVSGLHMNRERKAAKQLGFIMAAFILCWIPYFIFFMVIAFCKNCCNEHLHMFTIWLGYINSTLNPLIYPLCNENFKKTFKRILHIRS
Sequence of 168 GPCRs (Homo sapiens, UniProt P41231) (P41231 whole entry): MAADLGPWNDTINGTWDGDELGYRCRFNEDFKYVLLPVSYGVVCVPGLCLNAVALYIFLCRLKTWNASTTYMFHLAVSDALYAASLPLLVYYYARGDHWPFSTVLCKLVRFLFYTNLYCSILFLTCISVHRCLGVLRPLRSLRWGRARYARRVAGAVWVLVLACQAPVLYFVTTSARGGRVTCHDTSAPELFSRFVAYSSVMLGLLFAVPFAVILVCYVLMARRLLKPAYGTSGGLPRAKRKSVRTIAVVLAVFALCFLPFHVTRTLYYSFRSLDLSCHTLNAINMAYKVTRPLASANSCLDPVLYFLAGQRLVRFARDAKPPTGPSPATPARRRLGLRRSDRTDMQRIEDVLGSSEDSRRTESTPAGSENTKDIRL
Sequence of 168 GPCRs (Homo sapiens, UniProt Q99705) (Q99705 whole entry): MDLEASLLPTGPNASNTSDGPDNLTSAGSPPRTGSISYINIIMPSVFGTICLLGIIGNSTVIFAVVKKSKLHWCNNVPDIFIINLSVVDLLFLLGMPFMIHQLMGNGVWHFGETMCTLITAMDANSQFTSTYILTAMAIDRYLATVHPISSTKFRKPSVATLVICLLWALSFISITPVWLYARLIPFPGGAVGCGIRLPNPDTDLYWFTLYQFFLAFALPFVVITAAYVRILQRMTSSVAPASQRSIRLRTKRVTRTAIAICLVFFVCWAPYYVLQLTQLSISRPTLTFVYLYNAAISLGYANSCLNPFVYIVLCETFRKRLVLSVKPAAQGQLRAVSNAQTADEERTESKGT
Sequence of 168 GPCRs (Homo sapiens, UniProt Q8TCW9) (Q8TCW9 whole entry): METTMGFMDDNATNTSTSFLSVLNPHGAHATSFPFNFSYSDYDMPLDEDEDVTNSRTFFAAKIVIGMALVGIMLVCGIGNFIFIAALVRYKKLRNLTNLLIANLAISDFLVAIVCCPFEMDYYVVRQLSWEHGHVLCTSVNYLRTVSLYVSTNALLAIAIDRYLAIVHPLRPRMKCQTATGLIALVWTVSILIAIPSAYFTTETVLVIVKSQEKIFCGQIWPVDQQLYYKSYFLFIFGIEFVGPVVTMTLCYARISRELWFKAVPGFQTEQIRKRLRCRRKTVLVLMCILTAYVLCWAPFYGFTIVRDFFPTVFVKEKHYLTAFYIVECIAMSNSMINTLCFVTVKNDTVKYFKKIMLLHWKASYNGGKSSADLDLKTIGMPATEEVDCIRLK
Sequence of 168 GPCRs (Homo sapiens, UniProt P50391) (P50391 whole entry): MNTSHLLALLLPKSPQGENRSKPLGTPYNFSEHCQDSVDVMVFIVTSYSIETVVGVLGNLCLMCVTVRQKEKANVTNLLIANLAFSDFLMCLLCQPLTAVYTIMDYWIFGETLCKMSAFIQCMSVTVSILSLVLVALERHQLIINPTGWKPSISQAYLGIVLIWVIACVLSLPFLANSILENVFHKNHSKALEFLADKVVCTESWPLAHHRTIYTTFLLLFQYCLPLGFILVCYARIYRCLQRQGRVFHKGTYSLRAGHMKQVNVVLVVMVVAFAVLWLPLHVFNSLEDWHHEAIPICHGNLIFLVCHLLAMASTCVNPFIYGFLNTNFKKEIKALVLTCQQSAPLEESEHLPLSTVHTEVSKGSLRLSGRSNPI
Sequence of 168 GPCRs (Homo sapiens, UniProt P21918) (P21918 whole entry): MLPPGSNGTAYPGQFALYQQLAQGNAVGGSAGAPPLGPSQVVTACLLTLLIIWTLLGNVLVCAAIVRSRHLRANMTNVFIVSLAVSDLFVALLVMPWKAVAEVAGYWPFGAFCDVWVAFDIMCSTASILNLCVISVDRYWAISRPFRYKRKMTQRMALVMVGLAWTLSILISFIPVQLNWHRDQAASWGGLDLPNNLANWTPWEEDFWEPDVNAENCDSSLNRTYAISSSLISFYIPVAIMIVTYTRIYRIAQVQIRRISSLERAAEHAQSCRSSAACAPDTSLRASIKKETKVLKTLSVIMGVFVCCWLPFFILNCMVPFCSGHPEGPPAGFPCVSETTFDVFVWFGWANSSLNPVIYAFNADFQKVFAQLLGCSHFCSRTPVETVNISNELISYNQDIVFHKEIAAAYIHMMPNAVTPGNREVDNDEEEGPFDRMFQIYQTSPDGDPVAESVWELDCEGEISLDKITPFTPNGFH
Sequence of 168 GPCRs (Homo sapiens, UniProt P41586) (P41586 21-468): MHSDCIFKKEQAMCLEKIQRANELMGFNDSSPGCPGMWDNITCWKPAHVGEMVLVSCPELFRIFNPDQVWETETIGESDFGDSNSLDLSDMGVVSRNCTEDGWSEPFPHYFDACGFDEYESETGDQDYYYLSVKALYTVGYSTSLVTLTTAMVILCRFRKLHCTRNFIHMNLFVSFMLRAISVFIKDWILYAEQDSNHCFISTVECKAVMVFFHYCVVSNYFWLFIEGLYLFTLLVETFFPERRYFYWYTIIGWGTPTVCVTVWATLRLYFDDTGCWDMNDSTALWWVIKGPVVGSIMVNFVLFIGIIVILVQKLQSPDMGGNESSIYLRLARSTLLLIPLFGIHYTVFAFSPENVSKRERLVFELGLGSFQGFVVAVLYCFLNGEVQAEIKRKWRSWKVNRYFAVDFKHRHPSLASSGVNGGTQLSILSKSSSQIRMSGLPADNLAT

For `CNC(C)C(=O)c1ccc2c(c1)OCO2` (centres unmarked) [methylone, 3,4-methylenedioxy-N-methylcathinone], the “locomotor activity in OFT” value ([1]; methylone 15 or 30 mg/kg IP) was “significant increase in locomotor activity”, the “time spent in the center of the open field” value [1] was “significantly increases the time spent in the center” and the “time spent in the center of the open field” value ([1]; listed as Methylone) was “significantly increased center time”. The activity at 1 µM [2] was ~-4%, the activity at 1 µM [3] was -6.9% and the activity at 10 µM [4] was ~3%. The activity at 1 µM ([5]; 1 uM) was ~-8%, the activity at 10 µM ([5]; 10 uM) was -3.3% and the activity at 10 µM [6] was -2.6%. For the same compound, the activity at 10 µM [7] was -2.2%, the activity at 10 µM [8] was ~1% and the activity at 1 µM [9] was ~13%. It also gave an activity at 10 µM [10] of -0.3%, an activity at 10 µM ([11]; GPCR PTGER3, Antagonist mode, 10 uM) of -5.7% and an activity at 1 µM ([11]; PTGER3, Antagonist, 1 uM) of 8.2%. For the same compound, the activity at 1 µM [12] was ~6%, the activity at 1 µM [13] was ~9% and the activity at 10 µM [14] was -16.2%. The activity at 1 µM [15] was 6.7%, the activity at 10 µM [16] was ~7% and the activity at 1 µM [17] was 25.7%. It also gave an activity at 1 µM [18] of ~-11%, an activity at 10 µM [19] of -13.6% and an activity at 10 µM [20] of -38.3%. For the same compound, the activity at 10 µM [21] was ~32% and the activity at 1 µM [22] was ~19%.
